The text below walks through data of patent US20260257998A1, “ERR MODULATORS” (University of Health Sciences and Pharmacy in St. Louis, priority 2023, published 2026).

One experiment has as its target T1, ERRα (Homo sapiens, UniProt P11474).
T1 construct: expressed in transfected cells; host or cells: HEK293
T1 sequence (P11474 1-423): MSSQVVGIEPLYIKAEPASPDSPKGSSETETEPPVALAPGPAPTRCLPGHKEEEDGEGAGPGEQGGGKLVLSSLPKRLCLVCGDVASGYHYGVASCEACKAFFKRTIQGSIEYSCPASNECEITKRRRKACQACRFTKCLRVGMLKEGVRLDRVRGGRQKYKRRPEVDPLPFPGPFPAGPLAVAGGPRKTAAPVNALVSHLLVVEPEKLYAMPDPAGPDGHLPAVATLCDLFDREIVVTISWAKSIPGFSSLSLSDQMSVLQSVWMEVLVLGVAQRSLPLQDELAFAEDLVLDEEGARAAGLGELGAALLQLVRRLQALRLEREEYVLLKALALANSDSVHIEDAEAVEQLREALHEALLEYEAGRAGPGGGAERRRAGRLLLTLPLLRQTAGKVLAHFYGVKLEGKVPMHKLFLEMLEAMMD
Put plainly: ERRE luciferase reporter assay in HEK293 cells transfected with pcDNA3.1 ERRα. The settings on record: 24 hours treatment, luciferase activity. Also on record: key to EC50 (ERRα): ***<1 μM; **1-5 μM; *>5 μM; i.a. (inactive). The experiment is classed as cell-based. The protocol: (§1) HEK293 cells were maintained in Dulbecco's modified Eagles medium (DMEM) supplemented with 10% fetal bovine serum at 37° C. under 5% CO2. […] Cells were transfected with ERRE reporter construct and pcDNA3.1 ERRα or ERRγ. Twenty-four-hours post-transfection, the cells were treated with vehicle or compound (various concentrations) for 24 hours (4 wells per dose). Luciferase activity was measured using the One-Glo Tox luciferase reporter assay system (Promega) and […] were calculated using GraphPad Prism software.
(In general: In a reporter assay the amount or activity of a reporter protein is the signal.)

In the next experiment the target is T2, ERRγ (Homo sapiens, UniProt P62508).
T2 construct: expressed in transfected cells; host or cells: HEK293
T2 sequence (P62508 1-458): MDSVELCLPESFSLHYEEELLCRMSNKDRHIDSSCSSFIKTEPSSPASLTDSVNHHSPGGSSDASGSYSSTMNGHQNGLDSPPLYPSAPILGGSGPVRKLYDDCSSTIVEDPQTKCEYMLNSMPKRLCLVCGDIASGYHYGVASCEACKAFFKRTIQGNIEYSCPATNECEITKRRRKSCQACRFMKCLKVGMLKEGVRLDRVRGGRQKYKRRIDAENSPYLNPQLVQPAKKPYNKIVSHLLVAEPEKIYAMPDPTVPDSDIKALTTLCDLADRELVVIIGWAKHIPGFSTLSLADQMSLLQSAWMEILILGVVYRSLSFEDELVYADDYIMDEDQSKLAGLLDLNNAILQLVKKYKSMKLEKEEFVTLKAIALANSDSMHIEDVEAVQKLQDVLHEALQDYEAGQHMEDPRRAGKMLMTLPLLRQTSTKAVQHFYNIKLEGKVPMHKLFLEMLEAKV
Put plainly: ERRE luciferase reporter assay in HEK293 cells transfected with pcDNA3.1 ERRγ. The experiment is classed as cell-based. On the set-up: key to EC50 (ERRγ): ***<1 μM; **1-5 μM; *>5 μM; i.a. (inactive). As to conditions: 24 hours treatment, luciferase activity. Here is the method:
as §1

Each structure is given as a SMILES string.

On to `Cc1ccc(O)c(C2CC(c3ccccc3)=NN2)c1` (stereo not drawn) [Entry 39, 4-Methyl-2-(3-phenyl-4,5-dihydro-1H-pyrazol-5-yl)phenol], for which the half-maximal effective concentration (EC50) on ERRα and on ERRγ was under 1000 nM each time.

In the case of `Oc1ccccc1C1CC(c2ccc(C(F)(F)F)cc2)=NN1` (stereo not drawn) [Entry 40, 2-(3-(4-(Trifluoromethyl)phenyl)-4,5-dihydro-1H-pyrazol-5-yl)phenol], the concentration giving a half-maximal response (EC50) – broadly, the concentration giving half of the maximal effect – at ERRα is under 1000 nM; on ERRγ it was 1000 to 5000 nM.

With `Oc1ccccc1C1CC(c2ccc(OC(F)(F)F)cc2)=NN1` (stereo not drawn) [Entry 41, 2-(3-(4-(Trifluoromethoxy)phenyl)-4,5-dihydro-1H-pyrazol-5-yl)phenol], the EC50 at ERRα and at ERRγ was under 1000 nM throughout.

For `COc1ccc(C2=NNC(c3ccccc3O)C2)cc1` (stereo not drawn) [Entry 42, 2-(3-(4-Methoxyphenyl)-4,5-dihydro-1H-pyrazol-5-yl)phenol], the EC50 at ERRα and on ERRγ was under 1000 nM each time.

As for `Oc1c(Br)cc(Br)cc1C1CC(c2cc(Br)cc(Br)c2)=NN1` (stereo not drawn) [Entry 43, 2,4-Dibromo-6-(3-(3,5-dibromophenyl)-4,5-dihydro-1H-pyrazol-5-yl)phenol], at ERRα, the “EC50 (ERRα)” value is “i.a”. At ERRγ, the “EC50 (ERRγ)” value is on record as “i.a”.

As for `Oc1c(Cl)cccc1C1CC(c2ccc(Br)cc2)=NN1` (stereo not drawn) [Entry 45, 2-(3-(4-Bromophenyl)-4,5-dihydro-1H-pyrazol-5-yl)-6-chlorophenol], the 50% effective concentration (EC50) at ERRα and on ERRγ was 1000 to 5000 nM throughout.

With `Oc1ccccc1C1CC(c2ccc(F)cc2)=NN1` (stereo not drawn) [Entry 46, 2-(3-(4-Fluorophenyl)-4,5-dihydro-1H-pyrazol-5-yl)phenol], the 50% effective concentration (EC50) on ERRα is 1000 to 5000 nM; on ERRγ, over 5000 nM.

Turning to `Oc1ccccc1C1CC(c2ccc(Cl)cc2)=NN1` (stereo not drawn) [Entry 47, 2-(3-(4-Chlorophenyl)-4,5-dihydro-1H-pyrazol-5-yl)phenol], the concentration giving a half-maximal response (EC50) on ERRα was over 5000 nM; on ERRγ it was 1000 to 5000 nM.

With `Oc1ccccc1C1CC(c2ccc(Cl)cc2Cl)=NN1` (stereo not drawn) [Entry 48, 2-(3-(2,4-Dichlorophenyl)-4,5-dihydro-1H-pyrazol-5-yl)phenol], at ERRα, the “EC50 (ERRα)” value is “i.a”. Also, at ERRγ, the “EC50 (ERRγ)” value was “i.a”.

For `Cc1ccc(O)c(C2CC(c3ccc(Cl)cc3Cl)=NN2)c1` (stereo not drawn) [Entry 49, 2-(3-(2,4-Dichlorophenyl)-4,5-dihydro-1H-pyrazol-5-yl)-4-methylphenol], the “EC50 (ERRα)” value on ERRα is “i.a”. The “EC50 (ERRγ)” value at ERRγ is “i.a”.

Take `Oc1ccccc1C1=NNC(c2ccccc2)C1` (stereo not drawn) [Entry 50, 2-(5-Phenyl-4,5-dihydro-1H-pyrazol-3-yl)phenol]: the half-maximal effective concentration (EC50) at ERRα was under 1000 nM; at ERRγ, 1000 to 5000 nM.

Turning to `COc1ccc(C2=NNC(c3ccccc3)C2)c(O)c1` (stereo not drawn) [Entry 52, 5-Methoxy-2-(5-phenyl-4,5-dihydro-1H-pyrazol-3-yl)phenol], the 50% effective concentration (EC50) at ERRα and on ERRγ was under 1000 nM each time.

In the case of `COc1ccccc1C1=NNC(c2ccccc2O)C1` (stereo not drawn) [Entry 53, 2-(3-(2-Methoxyphenyl)-4,5-dihydro-1H-pyrazol-5-yl)phenol], the concentration giving a half-maximal response (EC50) at ERRα and on ERRγ was 1000 to 5000 nM throughout.

Take `Oc1ccccc1C1CC(c2ccccc2F)=NN1` (stereo not drawn) [Entry 54, 2-(3-(2-Fluorophenyl)-4,5-dihydro-1H-pyrazol-5-yl)phenol]: the values for the EC50 on ERRα and on ERRγ were 1000 to 5000 nM and over 5000 nM, respectively.

Turning to `COc1ccc(C2=NNC(c3cccc(Cl)c3O)C2)cc1` (stereo not drawn) [Entry 58, 2-chloro-6-(3-(4-methoxyphenyl)-4,5-dihydro-1H-pyrazol-5-yl)phenol], the EC50 at ERRα and at ERRγ was 1000 to 5000 nM throughout.

For `COc1ccc(C2=NNC(c3ccc(C)cc3O)C2)cc1` (stereo not drawn) [Entry 59, 2-(3-(4-methoxyphenyl)-4,5-dihydro-1H-pyrazol-5-yl)-5-methylphenol], the half-maximal effective concentration (EC50) on ERRα and at ERRγ was over 5000 nM each time.

As for `COc1ccccc1C1=NNC(c2cccc(Cl)c2O)C1` (stereo not drawn) [Entry 60, 2-chloro-6-(3-(2-methoxyphenyl)-4,5-dihydro-1H-pyrazol-5-yl)phenol], the “EC50 (ERRα)” value on ERRα is reported as “i.a”. Besides, on ERRγ, the “EC50 (ERRγ)” value is on record as “i.a”.

As for `Cc1ccc(C2CC(c3ccc(Br)cc3)=NN2)c(O)c1` (stereo not drawn) [Entry 61, 2-(3-(4-bromophenyl)-4,5-dihydro-1H-pyrazol-5-yl)-5-methylphenol], the “EC50 (ERRα)” value at ERRα is recorded as “i.a”. This compound also showed an EC50 on ERRγ of over 5000 nM.

In turn, `COc1cccc(C2=NNC(c3ccccc3O)C2)c1` (stereo not drawn) [Entry 62, 2-(3-(3-methoxyphenyl)-4,5-dihydro-1H-pyrazol-5-yl)phenol] showed an EC50 at ERRα of 1000 to 5000 nM. In addition, at ERRγ, the “EC50 (ERRγ)” value is reported as “i.a”.

With `CC(C)c1ccc(O)c(C2CC(c3ccc(F)cc3)=NN2)c1` (stereo not drawn) [Entry 63, 2-(3-(4-fluorophenyl)-4,5-dihydro-1H-pyrazol-5-yl)-4-isopropylphenol], the “EC50 (ERRα)” value on ERRα is reported as “i.a”. Also, the “EC50 (ERRγ)” value on ERRγ is on record as “i.a”.

On to `COc1cccc(C2CC(c3ccc(C(F)(F)F)cc3)=NN2)c1O` (stereo not drawn) [Entry 64, 2-methoxy-6-(3-(4-(trifluoromethyl)phenyl)-4,5-dihydro-1H-pyrazol-5-yl)phenol], for which the “EC50 (ERRα)” value at ERRα was “i.a”. Besides, the EC50 on ERRγ fell in the range of 1000 to 5000 nM.

As for `Cc1ccc(C2CC(c3cc(C(F)(F)F)cc(C(F)(F)F)c3)=NN2)c(O)c1` (stereo not drawn) [Entry 65, 2-(3-(3,5-bis(trifluoromethyl)phenyl)-4,5-dihydro-1H-pyrazol-5-yl)-5-methylphenol], the “EC50 (ERRα)” value on ERRα is “i.a”. At ERRγ, the “EC50 (ERRγ)” value is “i.a”.

Turning to `Oc1ccccc1C1=NNC(c2ccc(Cl)cc2)C1` (stereo not drawn) [Entry 66, 2-(5-(4-chlorophenyl)-4,5-dihydro-1H-pyrazol-3-yl)phenol], the 50% effective concentration (EC50) on ERRα and on ERRγ was under 1000 nM throughout.

On to `Oc1ccc(C2CC(c3ccccc3O)=NN2)cc1` (stereo not drawn) [Entry 67, 2-(5-(4-hydroxyphenyl)-4,5-dihydro-1H-pyrazol-3-yl)phenol], for which, on ERRα, the “EC50 (ERRα)” value was “i.a”. For the same compound, the EC50 on ERRγ is over 5000 nM.

Consider `FC(F)(F)c1cc(C2=NNC(c3ccc(Cl)cc3)C2)cc(C(F)(F)F)c1` (stereo not drawn) [Entry 68, 3-(3,5-bis(trifluoromethyl)phenyl)-5-(4-chlorophenyl)-4,5-dihydro-1H-pyrazole], for which the “EC50 (ERRα)” value on ERRα was “i.a”. Besides, the “EC50 (ERRγ)” value at ERRγ was “i.a”.

As to `Oc1ccccc1C1=NNC(c2c(O)cccc2Cl)C1` (stereo not drawn) [Entry 69, 3-chloro-2-(3-(2-hydroxyphenyl)-4,5-dihydro-1H-pyrazol-5-yl)phenol], the “EC50 (ERRα)” value at ERRα is “i.a”. Further, the “EC50 (ERRγ)” value on ERRγ is “i.a”.

Consider `Cc1cc(C2CC(c3ccc(C(F)(F)F)cc3)=NN2)cc(C)c1O` (stereo not drawn) [Entry 70, 2,6-dimethyl-4-(3-(4-(trifluoromethyl)phenyl)-4,5-dihydro-1H-pyrazol-5-yl)phenol], for which the “EC50 (ERRα)” value on ERRα is “i.a”. At ERRγ, the “EC50 (ERRγ)” value is “i.a”.

Take `Oc1ccc(C2CC(c3ccc(C(F)(F)F)cc3)=NN2)cc1Cl` (stereo not drawn) [Entry 71, 2-chloro-4-(3-(4-(trifluoromethyl)phenyl)-4,5-dihydro-1H-pyrazol-5-yl)phenol]: the “EC50 (ERRα)” value at ERRα is “i.a”. Further, the “EC50 (ERRγ)” value at ERRγ is “i.a”.

Regarding `FC(F)(F)c1ccc(C2=NNC(c3ccc4ccccc4c3)C2)cc1` (stereo not drawn) [Entry 72, 5-(naphthalen-2-yl)-3-(4-(trifluoromethyl)phenyl)-4,5-dihydro-1H-pyrazole], the “EC50 (ERRα)” value at ERRα is on record as “i.a”. Also, the “EC50 (ERRγ)” value at ERRγ is recorded as “i.a”.

As to `Oc1ccc(C2CC(c3ccc(C(F)(F)F)cc3)=NN2)cc1` (stereo not drawn) [Entry 73, 4-(3-(4-(trifluoromethyl)phenyl)-4,5-dihydro-1H-pyrazol-5-yl)phenol], the EC50 at ERRα and at ERRγ was 1000 to 5000 nM each time.

On to `Oc1cccc(C2CC(c3ccc(C(F)(F)F)cc3)=NN2)c1` (stereo not drawn) [Entry 74, 3-(3-(4-(trifluoromethyl)phenyl)-4,5-dihydro-1H-pyrazol-5-yl)phenol], for which the concentration giving a half-maximal response (EC50) at ERRα and at ERRγ was 1000 to 5000 nM each time.

For the compound `FC(F)(F)c1ccc(C2=NNC(c3ccccc3)C2)cc1` (stereo not drawn) [Entry 75, 5-phenyl-3-(4-(trifluoromethyl)phenyl)-4,5-dihydro-1H-pyrazole], the EC50 at ERRα and on ERRγ was 1000 to 5000 nM in each case.

Turning to `Oc1ccc(C2CC(c3cccc(F)c3)=NN2)cc1` (stereo not drawn) [Entry 77, 4-(3-(3-fluorophenyl)-4,5-dihydro-1H-pyrazol-5-yl)phenol], the EC50 on ERRα and on ERRγ was over 5000 nM in each case.
